Assay results published in patent US6737383B1, “Herbicidal oxadiazolidines” (priority 1999, dated 2004).

Assays:
sugar beet = assay: Test B pre/postemergence sugar beet; assay type: in vivo, Beta vulgaris
Summary of the method: (§1)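 Herbicidal effect was estimated by eye on a ten-point control scale after plants spent twelve to sixteen days in a greenhouse following soil or foliar treatment. Foliar sprays targeted plants at one to four leaves; all doses were formulated in a non-phytotoxic solvent with surfactant.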

pigweed = assay: Test B pre/postemergence pigweed; assay type: in vivo, Amaranthus retroflexus
Summary of the method: as §1

velvetleaf = assay: Test B pre/postemergence velvetleaf; assay type: in vivo, Abutilon theophrasti
Summary of the method: as §1

purple nutsedge = assay: Test B pre/postemergence purple nutsedge; assay type: in vivo, Cyperus rotundus
Summary of the method: as §1

wheat = assay: Test B pre/postemergence wheat; assay type: in vivo, Triticum aestivum
Summary of the method: as §1

surinam grass = assay: Test B pre/postemergence surinam grass; assay type: in vivo, Brachiaria decumbens
Summary of the method: as §1

smallflower flatsedge = assay: Test B flood test smallflower flatsedge; assay type: in vivo, Cyperus difformis
Summary of the method: (§2)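 Flood test on plants grown to the 2-leaf stage; treated plants kept in greenhouse twelve to sixteen days, then visually rated against controls on a 0 (no effect) to 10 (complete control) scale.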

corn = assay: Test B pre/postemergence corn; assay type: in vivo, Zea mays
Summary of the method: as §1

wild oat = assay: Test B pre/postemergence wild oat; assay type: in vivo, Avena fatua
Summary of the method: as §1

cocklebur = assay: Test B pre/postemergence cocklebur; assay type: in vivo, Xanthium strumarium
Summary of the method: as §1

bedstraw = assay: Test B pre/postemergence bedstraw; assay type: in vivo, Galium aparine; conditions: Postemergence
Summary of the method: as §1

rape = assay: Test B pre/postemergence rape; assay type: in vivo, Brassica napus
Summary of the method: as §1

bamyardgrass = assay: Test B flood test barnyardgrass; assay type: in vivo, Echinochloa crus-galli
Summary of the method: as §2

soybean = assay: Test B pre/postemergence soybean; assay type: in vivo, Glycine max
Summary of the method: as §1

crabgrass = assay: Test B pre/postemergence crabgrass; assay type: in vivo, Digitaria sanguinalis
Summary of the method: as §1

blackgrass = assay: Test B pre/postemergence blackgrass; assay type: in vivo, Alopecurus myosuroides
Summary of the method: as §1

[1] = Postemergence, Rate 250 g/ha, scale 0 to 10
[2] = Postemergence, Rate 500 g/ha, scale of 0 to 10 where 0 is no effect and 10 is complete control
[3] = Preemergence, Rate 62 g/ha, scale 0 to 10 (0 no effect, 10 complete control)
[4] = Preemergence, Rate 125 g/ha, scale of 0 to 10 where 0 is no effect and 10 is complete control
[5] = Preemergence, Rate 250 g/ha, scale 0 to 10, 0 is no effect, 10 is complete control
[6] = Preemergence, Rate 500 g/ha, scale 0 to 10, 0 is no effect, 10 is complete control
[7] = Rate 125 g/ha, Postemergence, scale 0 to 10, 0 is no effect, 10 is complete control
[8] = Rate 62 g/ha, Postemergence, scale of 0 to 10 where 0 is no effect and 10 is complete control
[9] = Postemergence block (flood test species), Rate 250 g/ha, scale 0 to 10
[10] = Postemergence section (flood test species), Rate 500 g/ha, scale of 0 to 10 where 0 is no effect and 10 is complete control
[11] = Rate 125 g/ha, Postemergence section (flood test species), scale 0 to 10, 0 is no effect, 10 is complete control

In the case of `C=CC[Si](C)(C)Cn1c(=O)on(C(=O)N(c2ccc(F)cc2)C(C)C)c1=O` [Compound 426], the “Sugarbeets plant response rating” value (sugar beet; [1]) is reported as 3, the “Sugarbeets plant response rating” value (sugar beet; [2]) is reported as 3 and the “Plant response rating, Sugarbeets” value (sugar beet; [3]) is reported as 0. The “Plant response rating, Sugarbeets” value (sugar beet; [4]) was 3, the “Sugarbeets plant response rating” value (sugar beet; [5]) was 4 and the “Sugarbeets plant response rating” value (sugar beet; [6]) was 6. For the same compound, the “Sugarbeets plant response rating” value (sugar beet; [7]) was 3, the “Redroot pigweed plant response rating” value (pigweed; [1]) was 5 and the “Redroot pigweed plant response rating” value (pigweed; [2]) was 6. For the same compound, the “Plant response rating, Redroot pigweed” value (pigweed; [3]) was 2, the “Plant response rating, Redroot pigweed” value (pigweed; [4]) was 4 and the “Redroot pigweed plant response rating” value (pigweed; [5]) was 8. For the same compound, the “Redroot pigweed plant response rating” value (pigweed; [6]) was 10, the “Redroot pigweed plant response rating” value (pigweed; [7]) was 0 and the “Velvetleaf plant response rating” value (velvetleaf; [1]) was 1. The “Velvetleaf plant response rating” value (velvetleaf; [2]) was 2, the “Plant response rating, Velvetleaf” value (velvetleaf; [3]) was 0 and the “Plant response rating, Velvetleaf” value (velvetleaf; [4]) was 2. For the same compound, the “Velvetleaf plant response rating” value (velvetleaf; [5]) was 2, the “Velvetleaf plant response rating” value (velvetleaf; [6]) was 5 and the “Velvetleaf plant response rating” value (velvetleaf; [7]) was 0. The “Nutsedge plant response rating” value (purple nutsedge; [1]) was 0, the “Nutsedge plant response rating” value (purple nutsedge; [2]) was 3 and the “Plant response rating, Nutsedge” value (purple nutsedge; [3]) was 0. The “Plant response rating, Nutsedge” value (purple nutsedge; [4]) was 0, the “Nutsedge plant response rating” value (purple nutsedge; [5]) was 0 and the “Nutsedge plant response rating” value (purple nutsedge; [6]) was 0. The “Nutsedge plant response rating” value (purple nutsedge; [7]) was 0, the “Wheat plant response rating” value (wheat; [1]) was 0 and the “Wheat plant response rating” value (wheat; [2]) was 2. For the same compound, the “Plant response rating, Wheat” value (wheat; [3]) was 0, the “Plant response rating, Wheat” value (wheat; [4]) was 0 and the “Wheat plant response rating” value (wheat; [5]) was 2. The “Wheat plant response rating” value (wheat; [6]) was 6, the “Wheat plant response rating” value (wheat; [7]) was 0 and the “B. signalgrass plant response rating” value (surinam grass; Postemergence, Rate 250 g/ha, scale 0 to 10, 0 no effect, 10 complete control) was 7. The “B. signalgrass plant response rating” value (surinam grass; [2]) was 8, the “Plant response rating, B. signalgrass” value (surinam grass; [3]) was 4 and the “Plant response rating, B. signalgrass” value (surinam grass; [4]) was 4. The “B. signalgrass plant response rating” value (surinam grass; [5]) was 6, the “B. signalgrass plant response rating” value (surinam grass; Preemergence, Rate 500 g/ha, scale of 0 to 10 where 0 is no effect and 10 is complete control) was 8 and the “B. signalgrass plant response rating” value (surinam grass; [8]) was 2. The “B. signalgrass plant response rating” value (surinam grass; [7]) was 5, the “S. Flatsedge plant response rating” value (smallflower flatsedge; [9]) was 0 and the “S. Flatsedge plant response rating” value (smallflower flatsedge; [10]) was 0. For the same compound, the “S. Flatsedge plant response rating” value (smallflower flatsedge; [11]) was 0, the “Corn plant response rating” value (corn; [1]) was 2 and the “Corn plant response rating” value (corn; [2]) was 4. The “Plant response rating, Corn” value (corn; [3]) was 0, the “Plant response rating, Corn” value (corn; [4]) was 0 and the “Corn plant response rating” value (corn; [5]) was 0. For the same compound, the “Corn plant response rating” value (corn; [6]) was 6, the “Corn plant response rating” value (corn; [8]) was 0 and the “Corn plant response rating” value (corn; [7]) was 0. The “Wild oats plant response rating” value (wild oat; [1]) was 2, the “Wild oats plant response rating” value (wild oat; [2]) was 2 and the “Plant response rating, Wild oats” value (wild oat; [3]) was 2. For the same compound, the “Plant response rating, Wild oats” value (wild oat; [4]) was 7, the “Wild oats plant response rating” value (wild oat; [5]) was 8 and the “Wild oats plant response rating” value (wild oat; [6]) was 10. For the same compound, the “Wild oats plant response rating” value (wild oat; [7]) was 0, the “Cocklebur plant response rating” value (cocklebur; [1]) was 0 and the “Cocklebur plant response rating” value (cocklebur; [2]) was 0. For the same compound, the “Plant response rating, Cocklebur” value (cocklebur; [3]) was 0, the “Plant response rating, Cocklebur” value (cocklebur; [4]) was 0 and the “Cocklebur plant response rating” value (cocklebur; [5]) was 0. For the same compound, the “Cocklebur plant response rating” value (cocklebur; [6]) was 0, the “Cocklebur plant response rating” value (cocklebur; [8]) was 0 and the “Cocklebur plant response rating” value (cocklebur; [7]) was 0. The “Bedstraw plant response rating” value (bedstraw; Rate 250 g/ha, scale 0 to 10) was 9, the “Bedstraw plant response rating” value (bedstraw; Rate 500 g/ha, scale of 0 to 10 where 0 is no effect and 10 is complete control) was 9 and the “Rape plant response rating” value (rape; [1]) was 2. For the same compound, the “Rape plant response rating” value (rape; [2]) was 4, the “Plant response rating, Rape” value (rape; [3]) was 0 and the “Plant response rating, Rape” value (rape; [4]) was 0. For the same compound, the “Rape plant response rating” value (rape; [5]) was 8, the “Rape plant response rating” value (rape; [6]) was 10 and the “Rape plant response rating” value (rape; [7]) was 0. The “Barnyardgrass plant response rating” value (bamyardgrass; [9]) was 0, the “Barnyardgrass plant response rating” value (bamyardgrass; [10]) was 0 and the “Barnyardgrass plant response rating” value (bamyardgrass; Rate 62 g/ha, Postemergence (flood test species), scale of 0 to 10 where 0 is no effect and 10 is complete control) was 0. The “Barnyardgrass plant response rating” value (bamyardgrass; [11]) was 0, the “Soybean plant response rating” value (soybean; [1]) was 6 and the “Soybean plant response rating” value (soybean; [2]) was 7. For the same compound, the “Plant response rating, Soybean” value (soybean; [3]) was 0, the “Plant response rating, Soybean” value (soybean; [4]) was 0 and the “Soybean plant response rating” value (soybean; [5]) was 0. The “Soybean plant response rating” value (soybean; [6]) was 0, the “Soybean plant response rating” value (soybean; [7]) was 4 and the “Crabgrass plant response rating” value (crabgrass; [1]) was 9. The “Crabgrass plant response rating” value (crabgrass; [2]) was 9, the “Plant response rating, Crabgrass” value (crabgrass; [3]) was 8 and the “Plant response rating, Crabgrass” value (crabgrass; [4]) was 9. For the same compound, the “Crabgrass plant response rating” value (crabgrass; [5]) was 10, the “Crabgrass plant response rating” value (crabgrass; [6]) was 10 and the “Crabgrass plant response rating” value (crabgrass; [8]) was 1. The “Crabgrass plant response rating” value (crabgrass; [7]) was 6, the “Blackgrass plant response rating” value (blackgrass; [1]) was 8 and the “Blackgrass plant response rating” value (blackgrass; [2]) was 8. The “Plant response rating, Blackgrass” value (blackgrass; [3]) was 4, the “Plant response rating, Blackgrass” value (blackgrass; [4]) was 6 and the “Blackgrass plant response rating” value (blackgrass; [5]) was 9. The “Blackgrass plant response rating” value (blackgrass; [6]) was 9, the “Blackgrass plant response rating” value (blackgrass; [8]) was 3 and the “Blackgrass plant response rating” value (blackgrass; [7]) was 6.
